Legend:
ZRANB3 = ZRANB3 nuclease assay with non-hydrolysable ATP analogues; assay type: biochemical, Human; conditions: wild-type ZRANB3, fluorescently labelled DNA substrate, native PAGE (Fig. 3d)
Source text: Figure 3 Characterisation of the ZRANB3 HNH active site. (a) Overlay of the T4 endonuclease VII (yellow) and the ZRANB3 HNH (white) structures. […] (b) Overlay of the T4 endonuclease VII (yellow, labels in italics) and the ZRANB3 HNH (white) structures. Mg^2+ ion in T4 endonuclease is shown as a purple sphere. His1021, Asp1020 and His1045 in the HNH structure overlap with the active site residues of T4 endonuclease VII. (c) Nuclease assay with the wild-type and mutant ZRANB3 proteins in the presence and absence of ATP. Reactions were analysed by native poly-acrylamide gel electrophoresis. Indicated are mobilities of the fluorescently labelled DNA substrate and product. (d) Nuclease assay with non-hydrolysable ATP homologues. Shown are controls with the wild-type ZRANB3 and the ATPase dead K65R mutant in the presence of ATP.
Oligonucleotides used in the nuclease assays (5′-[…]-[…]-3′ and Cy3 5′-end-labelled 5′-[…]-[…]-3′) were incubated in 10 mM Tris-HCl pH 7.5, 50 mM NaCl for 3 min at 94 °C, after which the reactions were allowed to gradually cool down.
The nuclease assays with ZRANB3 was performed essentially as described in ref. [9]. Briefly, reaction mixtures containing the indicated nuclease (200 nM) and fluorescently labelled DNA substrate (10 nM) in 10 μl of reaction buffer (50 mM Tris-HCl; 50 mM NaCl; 5 mM MgCl2; 2 mM ATP (Sigma); pH 7.5) were incubated at 30 °C for 60 min. The reactions were stopped by incubation with 0.1% SDS and 4 mg ml^−1 of proteinase K at 30 °C for 45 min. The reactions were then mixed with sucrose (10% final concentration) and resolved in a 10% polyacrylamide gel in 0.5 × TBE buffer (45 mM Tris-borate, 1 mM EDTA; pH 7.5). The fluorescent DNA species were visualized and quantified using Pharos Mx imager and Quantity one software (BioRad).

PCNA = PCNA pull-down with biotinylated PIP box and APIM motif peptides; assay type: binding; conditions: biotinylated peptides on streptavidin beads, recombinant PCNA, Western blotting with PCNA antibody (Fig. 4c)
Protocol: Figure 4 Stimulation of the ZRANB3 nuclease activity by PCNA. (a) Stimulation of FEN1 and ZRANB3 nuclease activities by PCNA. FEN1 or ZRANB3 nucleases were incubated with the DNA substrate and increasing concentrations of PCNA (0.375, 0.75, 1.5 and 3 μM), in the presence (ZRANB3) or absence (FEN1) of ATP. (b) Domain structure of ZRANB3. Conservation of the PIP box and the APIM motif residues among ZRANB3 proteins are shown in the alignments below. Mutated conserved residues in the PIP box and the APIM motif are indicated by arrows. (c) Interactions of the ZRANB3 PIP box and APIM motif with PCNA. Biotinylated PIP box and APIM motif peptides were bound to streptavidin beads and incubated with recombinant PCNA. The interaction was assayed by Western blotting with PCNA antibody. […] (d) Effect of PCNA (0.375, 0.75, 1.5 and 3 μM) on ZRANB3 nuclease activity assayed with the wild-type ZRANB3 and ZRANB3 PCNA binding mutants (ZRANB3-PIP*, ZRANB3-ΔAPIM and ZRANB3-PIP*ΔAPIM). (e) Quantification of nuclease activities in the presence of increasing concentrations of PCNA. […]
Biotinylated PIP-box and APIM-motif peptides were synthesized by Genscript. […] The beads were subsequently washed with the same buffer to remove unbound PCNA, after which they were boiled in the SDS-PAGE loading buffer, and analysed by anti-PCNA Western blotting (ab18197, 1:1,000 dilution).

Row | Compound | ZRANB3 endonuclease activity on substitution of ATP by non-hydrolysable ATP analogue (ZRANB3) | Interaction with PCNA (pull-down) (PCNA)
1 | Nc1ncnc2c1ncn2[C@@H]1O[C@H](CO[P@](=O)(O)O[P@](=O)(O)O[P@@](=O)(O)S)[C@@H](O)[C@H]1O [ATPγS] | complete loss of activity | 
2 | APIM*: biotinylated ZRANB3 APIM motif peptide with F1075A mutation (pull-down) |  | abrogated the interaction with PCNA
3 | Nc1ncnc2c1ncn2[C@@H]1O[C@H](COP(=O)(O)OP(=O)(O)NP(=O)(O)O)[C@@H](O)[C@H]1O [AMP-PNP] | complete loss of activity | 
4 | Nc1ncnc2c1ncn2[C@@H]1O[C@H](COP(=O)(O)OP(=O)(O)CP(=O)(O)O)[C@@H](O)[C@H]1O [AMP-PCP] | complete loss of activity | 
